According to ChEMBL document CHEMBL3259715, “Shuttle-cargo fusion molecules of transport peptides and the hD2/3 receptor antagonist fallypride: a feasible approach to preserve ligand-receptor binding?” (J Med Chem, 2014):
Peptide text beside a SMILES is read from it. * marks the point of attachment. X1 = C=CCN1CCC[C@H]1CNC(=O)c1cc(CCCSC2CC(=O)N(CCCCCC(=O)*)C2=O)cc(OC)c1OC

Target: D(2) dopamine receptor (Homo sapiens, UniProt P14416)
Assay: Displacement of [3H]spiperone from human D2 receptor transfected in HEK cells
Assay type: cell-based, HEK293

Sequence of D(2) dopamine receptor (P14416 whole entry): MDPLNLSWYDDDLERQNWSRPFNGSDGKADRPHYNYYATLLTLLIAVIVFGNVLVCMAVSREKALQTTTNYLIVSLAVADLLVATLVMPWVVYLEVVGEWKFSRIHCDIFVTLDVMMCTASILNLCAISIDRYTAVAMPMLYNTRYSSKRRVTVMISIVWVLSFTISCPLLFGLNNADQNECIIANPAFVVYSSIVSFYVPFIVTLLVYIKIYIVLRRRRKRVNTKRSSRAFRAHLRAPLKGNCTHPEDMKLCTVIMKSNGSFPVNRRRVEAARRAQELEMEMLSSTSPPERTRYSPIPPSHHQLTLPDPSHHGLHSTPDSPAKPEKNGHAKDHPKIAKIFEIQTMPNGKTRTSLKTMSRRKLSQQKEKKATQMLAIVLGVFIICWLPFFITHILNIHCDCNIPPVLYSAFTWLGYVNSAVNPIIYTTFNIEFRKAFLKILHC

| Molecule | Ki [nM] |
| --- | --- |
| C=CCN1CCC[C@H]1CNC(=O)c1cc(CCCSC2CC(=O)N(CCCCCC(=O)N[C@@H](CCCNC(=N)N)C(=O)N[C@@H](CCCCN)C(=O)N[C@@H](CCCCN)C(=O)N[C@@H](CCCNC(=N)N)C(=O)N[C@@H](CCCNC(=N)N)C(=O)N[C@@H](CCC(N)=O)C(=O)N[C@@H](CCCNC(=N)N)C(=O)N[C@@H](CCCNC(=N)N)C(=O)N[C@@H](CCCNC(=N)N)C(=O)O)C2=O)cc(OC)c1OC (some centres undefined) | 9.69 |
| C=CCN1CCC[C@H]1CNC(=O)c1cc(CCCSC2CC(=O)N(CCCCCC(=O)N[C@@H](Cc3cnc[nH]3)C(=O)N[C@@H](C)C(=O)N[C@H](C(=O)N[C@@H](Cc3ccc(O)cc3)C(=O)N3CCC[C@H]3C(=O)N[C@@H](CCCNC(=N)N)C(=O)N[C@@H](Cc3cnc[nH]3)C(=O)O)[C@@H](C)CC)C2=O)cc(OC)c1OC (some centres undefined) | 10.3 |
| C=CCN1CCC[C@H]1CNC(=O)c1cc(CCCSC2CC(=O)N(CCCCCC(=O)N[C@@H](CCCNC(=N)N)C(=O)N[C@@H](CCC(N)=O)C(=O)N[C@H](C(=O)N[C@@H](CCCCN)C(=O)N[C@H](C(=O)N[C@@H](Cc3c[nH]c4ccccc34)C(=O)N[C@@H](Cc3ccccc3)C(=O)N[C@@H](CCC(N)=O)C(=O)N[C@@H](CC(N)=O)C(=O)N[C@@H](CCCNC(=N)N)C(=O)N[C@@H](CCCNC(=N)N)C(=O)N[C@@H](CCSC)C(=O)N[C@@H](CCCCN)C(=O)N[C@@H](Cc3c[nH]c4ccccc34)C(=O)N[C@@H](CCCCN)C(=O)N[C@@H](CCCCN)C(=O)O)[C@@H](C)CC)[C@@H](C)CC)C2=O)cc(OC)c1OC (some centres undefined) | 8.14 |
| C=CCN1CCC[C@H]1CNC(=O)c1cc(CCCSC2CC(=O)N(CCCCCC(=O)NCCOCCOCCOCCOCCOCCOCCC(=O)N[C@@H](Cc3cnc[nH]3)C(=O)N[C@@H](C)C(=O)N[C@H](C(=O)N[C@@H](Cc3ccc(O)cc3)C(=O)N3CCC[C@H]3C(=O)N[C@@H](CCCNC(=N)N)C(=O)N[C@@H](Cc3cnc[nH]3)C(=O)O)[C@@H](C)CC)C2=O)cc(OC)c1OC (some centres undefined) | 27.4 |
| C=CCN1CCC[C@H]1CNC(=O)c1cc(CCCSC2CC(=O)N(CCCCCC(=O)NCCOCCOCCOCCOCCOCCOCCOCCOCCC(=O)N[C@@H](Cc3cnc[nH]3)C(=O)N[C@@H](C)C(=O)N[C@H](C(=O)N[C@@H](Cc3ccc(O)cc3)C(=O)N3CCC[C@H]3C(=O)N[C@@H](CCCNC(=N)N)C(=O)N[C@@H](Cc3cnc[nH]3)C(=O)O)[C@@H](C)CC)C2=O)cc(OC)c1OC (some centres undefined) | 53.9 |
| C=CCN1CCC[C@H]1CNC(=O)c1cc(CCCSC2CC(=O)N(CCCCCC(=O)NCCOCCOCCOCCOCCOCCOCCOCCOCCC(=O)N[C@H](C(=O)N[C@@H](Cc3ccccc3)C(=O)N[C@@H](Cc3ccccc3)C(=O)N[C@@H](Cc3ccc(O)cc3)C(=O)NCC(=O)NCC(=O)N[C@@H](CO)C(=O)N[C@@H](CCCNC(=N)N)C(=O)NCC(=O)N[C@@H](CCCCNC(=O)CN3CCN(CC(=O)O)CCN(CC(=O)O)CCN(CC(=O)O)CC3)C(=O)N[C@@H](CCCNC(=N)N)C(=O)N[C@@H](CC(N)=O)C(=O)N[C@@H](CC(N)=O)C(=O)N[C@@H](Cc3ccccc3)C(=O)N[C@@H](CCCCN)C(=O)N[C@H](C(=O)N[C@@H](CCC(=O)O)C(=O)N[C@@H](CCC(=O)O)C(=O)N[C@@H](Cc3ccc(O)cc3)C(=O)O)[C@@H](C)O)[C@@H](C)O)C2=O)cc(OC)c1OC (some centres undefined) | 42.8 |
| C=CCN1CCC[C@H]1CNC(=O)c1cc(CCCSC2CC(=O)N(CCCCCC(=O)NCCOCCOCCOCCOCCC(N)=O)C2=O)cc(OC)c1OC (some centres undefined) | 7.31 |
| C=CCN1CCC[C@H]1CNC(=O)c1cc(CCCF)ccc1OC | 0.63 |
| C=CCN1CCC[C@H]1CNC(=O)c1cc(CCCSC2CC(=O)N(CCCCCC(=O)N[C@H](C(=O)N[C@@H](Cc3cnc[nH]3)C(=O)N[C@@H](CCCNC(=N)N)C(=O)N3CCC[C@H]3C(=O)N3CCC[C@H]3C(=O)N[C@@H](CCSC)C(=O)N[C@@H](Cc3c[nH]c4ccccc34)C(=O)N[C@@H](CO)C(=O)N3CCC[C@H]3C(=O)N[C@H](C(=O)N[C@@H](Cc3c[nH]c4ccccc34)C(=O)N3CCC[C@H]3C(=O)O)C(C)C)[C@@H](C)O)C2=O)cc(OC)c1OC (some centres undefined) (X1-THRPPMWSPVWP-OH) | 27.3 |
| H-VQRKRQKLMP-OH | > 1000 |

Other lines, results leading:

| Ki [nM] | Molecule |
| --- | --- |
| 21.5 | C=CCN1CCC[C@H]1CNC(=O)c1cc(CCCSC2CC(=O)N(CCCCCC(=O)NCC(=O)N[C@@H](CCCNC(=N)N)C(=O)N[C@@H](CCCCN)C(=O)N[C@@H](CCCCN)C(=O)N[C@@H](CCCNC(=N)N)C(=O)N[C@@H](CCCNC(=N)N)C(=O)N[C@@H](CCC(N)=O)C(=O)N[C@@H](CCCNC(=N)N)C(=O)N[C@@H](CCCNC(=N)N)C(=O)N[C@@H](CCCNC(=N)N)C(=O)N3CCC[C@H]3C(=O)N3CCC[C@H]3C(=O)N[C@@H](CCC(N)=O)C(=O)O)C2=O)cc(OC)c1OC (some centres undefined) |
| 28.4 | C=CCN1CCC[C@H]1CNC(=O)c1cc(CCCSC2CC(=O)N(CCCCCC(=O)NCCCC(=O)N[C@@H](Cc3cnc[nH]3)C(=O)N[C@@H](C)C(=O)N[C@H](C(=O)N[C@@H](Cc3ccc(O)cc3)C(=O)N3CCC[C@H]3C(=O)N[C@@H](CCCNC(=N)N)C(=O)N[C@@H](Cc3cnc[nH]3)C(=O)O)[C@@H](C)CC)C2=O)cc(OC)c1OC (some centres undefined) |
| 30.3 | C=CCN1CCC[C@H]1CNC(=O)c1cc(CCCSC2CC(=O)N(CCCCCC(=O)NCCOCCOCC(=O)N[C@@H](Cc3cnc[nH]3)C(=O)N[C@@H](C)C(=O)N[C@H](C(=O)N[C@@H](Cc3ccc(O)cc3)C(=O)N3CCC[C@H]3C(=O)N[C@@H](CCCNC(=N)N)C(=O)N[C@@H](Cc3cnc[nH]3)C(=O)O)[C@@H](C)CC)C2=O)cc(OC)c1OC (some centres undefined) |
| 25.3 | C=CCN1CCC[C@H]1CNC(=O)c1cc(CCCSC2CC(=O)N(CCCCCC(=O)NCCOCCOCCOCCOCCOCCOCCOCCOCCOCCOCCOCCOCCC(=O)N[C@@H](Cc3cnc[nH]3)C(=O)N[C@@H](C)C(=O)N[C@H](C(=O)N[C@@H](Cc3ccc(O)cc3)C(=O)N3CCC[C@H]3C(=O)N[C@@H](CCCNC(=N)N)C(=O)N[C@@H](Cc3cnc[nH]3)C(=O)O)[C@@H](C)CC)C2=O)cc(OC)c1OC (some centres undefined) |
| 26.1 | C=CCN1CCC[C@H]1CNC(=O)c1cc(CCCSC2CC(=O)N(CCCCCC(=O)NCCOCCOCCOCCOCCC(=O)N[C@H](C(=O)N[C@@H](Cc3ccccc3)C(=O)N[C@@H](Cc3ccccc3)C(=O)N[C@@H](Cc3ccc(O)cc3)C(=O)NCC(=O)NCC(=O)N[C@@H](CO)C(=O)N[C@@H](CCCNC(=N)N)C(=O)NCC(=O)N[C@@H](CCCCNC(=O)CN3CCN(CC(=O)O)CCN(CC(=O)O)CCN(CC(=O)O)CC3)C(=O)N[C@@H](CCCNC(=N)N)C(=O)N[C@@H](CC(N)=O)C(=O)N[C@@H](CC(N)=O)C(=O)N[C@@H](Cc3ccccc3)C(=O)N[C@@H](CCCCN)C(=O)N[C@H](C(=O)N[C@@H](CCC(=O)O)C(=O)N[C@@H](CCC(=O)O)C(=O)N[C@@H](Cc3ccc(O)cc3)C(=O)O)[C@@H](C)O)[C@@H](C)O)C2=O)cc(OC)c1OC (some centres undefined) |
| 35.8 | C=CCN1CCC[C@H]1CNC(=O)c1cc(CCCSC2CC(=O)N(CCCCCC(=O)NCCOCCOCCOCCOCCOCCOCCC(=O)N[C@H](C(=O)N[C@@H](Cc3ccccc3)C(=O)N[C@@H](Cc3ccccc3)C(=O)N[C@@H](Cc3ccc(O)cc3)C(=O)NCC(=O)NCC(=O)N[C@@H](CO)C(=O)N[C@@H](CCCNC(=N)N)C(=O)NCC(=O)N[C@@H](CCCCNC(=O)CN3CCN(CC(=O)O)CCN(CC(=O)O)CCN(CC(=O)O)CC3)C(=O)N[C@@H](CCCNC(=N)N)C(=O)N[C@@H](CC(N)=O)C(=O)N[C@@H](CC(N)=O)C(=O)N[C@@H](Cc3ccccc3)C(=O)N[C@@H](CCCCN)C(=O)N[C@H](C(=O)N[C@@H](CCC(=O)O)C(=O)N[C@@H](CCC(=O)O)C(=O)N[C@@H](Cc3ccc(O)cc3)C(=O)O)[C@@H](C)O)[C@@H](C)O)C2=O)cc(OC)c1OC (some centres undefined) |
| 64.2 | C=CCN1CCC[C@H]1CNC(=O)c1cc(CCCSC2CC(=O)N(CCCCCC(=O)N[C@H](C(=O)N[C@@H](Cc3ccccc3)C(=O)N[C@@H](Cc3ccccc3)C(=O)N[C@@H](Cc3ccc(O)cc3)C(=O)NCC(=O)NCC(=O)N[C@@H](CO)C(=O)N[C@@H](CCCNC(=N)N)C(=O)NCC(=O)N[C@@H](CCCCNC(=O)CN3CCN(CC(=O)O)CCN(CC(=O)O)CCN(CC(=O)O)CC3)C(=O)N[C@@H](CCCNC(=N)N)C(=O)N[C@@H](CC(N)=O)C(=O)N[C@@H](CC(N)=O)C(=O)N[C@@H](Cc3ccccc3)C(=O)N[C@@H](CCCC[n+]3c(C)cc(/C=C/C=C/c4ccc(N(C)C)cc4)cc3C)C(=O)N[C@H](C(=O)N[C@@H](CCC(=O)O)C(=O)N[C@@H](CCC(=O)O)C(=O)N[C@@H](Cc3ccc(O)cc3)C(=O)O)[C@@H](C)O)[C@@H](C)O)C2=O)cc(OC)c1OC (some centres undefined) |
| 12.3 | C=CCN1CCC[C@H]1CNC(=O)c1cc(CCCSC2CC(=O)N(CCCCCC(=O)NCC(=O)N[C@@H](Cc3c[nH]c4ccccc34)C(=O)N[C@H](C(=O)N[C@@H](CC(C)C)C(=O)N[C@@H](CC(=O)O)C(=O)N[C@@H](CO)C(=O)N[C@@H](C)C(=O)NCC(=O)N[C@@H](Cc3ccc(O)cc3)C(=O)N[C@@H](CC(C)C)C(=O)N[C@@H](CC(C)C)C(=O)NCC(=O)N[C@@H](CCCCN)C(=O)N[C@H](C(=O)N[C@@H](CC(=O)O)C(=O)N[C@@H](CC(C)C)C(=O)N[C@@H](CCCCN)C(=O)N[C@@H](C)C(=O)N[C@@H](CC(C)C)C(=O)N[C@@H](C)C(=O)N[C@@H](C)C(=O)N[C@@H](CC(C)C)C(=O)N[C@@H](C)C(=O)N[C@@H](CCCCN)C(=O)N[C@@H](CCCCN)C(=O)N[C@H](C(=O)N[C@@H](CC(C)C)C(=O)O)[C@@H](C)CC)[C@@H](C)CC)[C@@H](C)O)C2=O)cc(OC)c1OC (some centres undefined) (X1-GWTLDSAGYLLGKIDLKALAALAKKIL-OH) |
| 13 | C=CCN1CCC[C@H]1CNC(=O)c1cc(CCCSC2CC(=O)N(CCCCCC(=O)N[C@H](C(=O)N[C@@H](CCC(N)=O)C(=O)N[C@@H](CCCNC(=N)N)C(=O)N[C@@H](CCCCN)C(=O)N[C@@H](CCCNC(=N)N)C(=O)N[C@@H](CCC(N)=O)C(=O)N[C@@H](CCCCN)C(=O)N[C@@H](CC(C)C)C(=O)N[C@@H](CCSC)C(=O)N3CCC[C@H]3C(=O)O)C(C)C)C2=O)cc(OC)c1OC (some centres undefined) (X1-VQRKRQKLMP-OH) |
